Test results: ChEMBL document CHEMBL1201862, “PubChem BioAssay data set” (2004)
Counter-ions that a name gives are not always drawn. Activity calls are given as the source filed them.

Columns and labels:
[1] = biological target: ATP-dependent molecular chaperone HSP82 (Candida albicans (strain WO-1) (Yeast), UniProt C4YTQ8); test: steroid-induced GRE reporter decrease in yeast – S. cerevisiae, luminescence, Hsp90 inhibitor project, dose response (AID 2400); assay type: functional, cell-based;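 also: beta-galactosidase luminescence from glucocorticoid response element reporter as proxy for Hsp90 function; inhibitor potency where signal loss means Hsp90 inhibition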
[2] = biological target: Peroxisome proliferator-activated receptor gamma/Nuclear receptor coactivator 2 (Homo sapiens, UniProt P37231); test: (§1) TR-FRET dose response biochemical High Throughput Screening assay for agonists of the steroid receptor coactivator 2 (SRC-2) recruitment by the peroxisome proliferator-activated receptor gamma (PPAR gamma): non-selective agonists. [Related pubchem assays: 1297, 1032 ]; assay type: functional
[3] = biological target: Peroxisome proliferator-activated receptor gamma/Nuclear receptor corepressor 2 (Homo sapiens, UniProt P37231+Q9Y618); assay type: functional
[4] = fluconazole-exposed Candida albicans growth modulators – fluorescence, retest, confirmation (AID 2467); assay type: functional, cell-based
[5] = biological target: Peroxisome proliferator-activated receptor gamma/Nuclear receptor coactivator 1 (Homo sapiens, UniProt P37231); test: as §1, with “1 (SRC-1)” for “2 (SRC-2)”, “assays (depositor defined):AID1300, AID1808, AID504735, AID631]” for “assays: 1297, 1032 ]”; assay type: protein assay
Cytochrome P450 3A4 = Cytochrome P450 3A4 (Homo sapiens, UniProt P08684);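 also: CYP3A4 tested as one member of a cytochrome P450 panel screen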
Cytochrome P450 2C19 = Cytochrome P450 2C19 (Homo sapiens, UniProt P33261); test: Cytochrome panel assay with activity outcomes. Panel member name: p450-cyp2c19 Compounds with AC50 equal or less than 10 uM are considered active; assay type: functional; conditions: read-out: AC50
[6] = biological target: Serine/threonine-protein phosphatase (Candida dubliniensis (strain CD36 / CBS 7987 / NCPF 3949 / NRRLY-17841) (Yeast), UniProt B9W6M3); test: blockers of CaCl2-induced CDRE-lacZ signaling – S. cerevisiae, luminescence, secondary, dose response (AID 2388); assay type: functional, cell-based;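 also: yeast reporter cells carrying a calcineurin-responsive lacZ construct stimulated with calcium chloride; luminescent beta-galactosidase reporter signal in whole cells rather than isolated phosphatase activity; potency for inhibition where a drop in reporter signal means calcineurin blockade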
[7] = biological target: Photoreceptor-specific nuclear receptor (Homo sapiens, UniProt Q9Y5X4); assay type: functional;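 also: potency for compounds that break the NR2E3 corepressor complex and count as activators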
fMet-Leu-Phe receptor = fMet-Leu-Phe receptor (Homo sapiens, UniProt P21462); test: formyl peptide receptor binders – dose response (AID 519); assay type: functional
[8] = biological target: Peroxisome proliferator-activated receptor gamma/Nuclear receptor coactivator 3 (Homo sapiens, UniProt P37231); test: as §1, with “3 (SRC-3)” for “2 (SRC-2)”, “1301 (Confirmation screen.), 1048 (Primary screen.)]” for “1297, 1032 ]”; assay type: functional
[9] = NIH-3T3 fibroblast cytotoxicity, dose response, cytotoxicity control, cell-based, fluorescence, Alamar Blue, secondary assay (AID 2327); assay type: functional;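 also: NIH-3T3 mouse fibroblasts cultured with fluconazole at 8 µg/mL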
[10] = Luminescence Cell-Based Dose Retest to Confirm Inhibitors of Cancer Stem Cells. [Related pubchem assays (depositor defined):AID2717, AID2721]; assay type: functional; conditions: Homo sapiens
[11] = biological target: SWI/SNF-related matrix-associated actin-dependent regulator of chromatin subfamily A member 2 (Homo sapiens, UniProt P51531); test: Luminescence-based cell-based high throughput dose response assay to identify activators of the function of SWI/SNF related, matrix associated, actin dependent regulator of chromatin, subfamily a, member 2 (SMARCA2, BRM).; assay type: functional
[12] = Counterscreen for activators of the function of SWI/SNF related, matrix associated, actin dependent regulator of chromatin, subfamily a, member 2 (SMARCA2, BRM): Luminescence-based cell-based high throughput dose response assay to identify non-selective compounds using the VP16 reporter assay.; assay type: functional
[13] = biological target: T1, Latent membrane protein 1 (Human herpesvirus 4 (strain B95-8), UniProt P03230); test: LMP1 TES1 pathway selectivity over dsRED control – imaging, HEK293T, dual-color eGFP/dsRED, cherry-picks, selectivity assay for LMP1 NF-kB inhibitor project, dose response (AID 588398); assay type: functional, cell-based
T1 sequence (P03230 whole entry): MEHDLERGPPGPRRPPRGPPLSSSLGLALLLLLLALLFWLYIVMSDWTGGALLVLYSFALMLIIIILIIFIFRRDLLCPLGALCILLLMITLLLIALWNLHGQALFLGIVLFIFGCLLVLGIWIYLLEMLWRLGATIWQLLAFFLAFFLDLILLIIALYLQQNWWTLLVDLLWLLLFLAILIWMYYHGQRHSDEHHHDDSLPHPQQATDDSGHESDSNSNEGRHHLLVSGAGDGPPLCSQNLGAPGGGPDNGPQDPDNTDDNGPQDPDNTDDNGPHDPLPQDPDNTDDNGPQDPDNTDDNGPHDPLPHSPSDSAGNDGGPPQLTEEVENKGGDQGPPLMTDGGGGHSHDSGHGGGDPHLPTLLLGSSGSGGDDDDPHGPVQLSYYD

[14] = viability loss of HMLE_sh_eGFP cells – cell-based, luminescence, counter-screen for HMLE_sh_ECad selective toxicity project, dose response (AID 463074); assay type: functional, Homo sapiens;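 also: HMLE human mammary epithelial cells expressing control shRNA against eGFP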
HEK293 = test: cells; assay type: functional, cell-based; conditions: Homo sapiens
[15] = biological target: T2, Nuclear receptor subfamily 0 group B member 1 (Homo sapiens, UniProt P51843); test: Luminescence-based cell-based high throughput dose response assay for inhibitors of the orphan nuclear receptor subfamily 0, group B, member 1 (DAX1; NR0B1). [Related pubchem assays (depositor defined):AID504766, AID504790]; assay type: functional
T2 sequence (P51843 whole entry): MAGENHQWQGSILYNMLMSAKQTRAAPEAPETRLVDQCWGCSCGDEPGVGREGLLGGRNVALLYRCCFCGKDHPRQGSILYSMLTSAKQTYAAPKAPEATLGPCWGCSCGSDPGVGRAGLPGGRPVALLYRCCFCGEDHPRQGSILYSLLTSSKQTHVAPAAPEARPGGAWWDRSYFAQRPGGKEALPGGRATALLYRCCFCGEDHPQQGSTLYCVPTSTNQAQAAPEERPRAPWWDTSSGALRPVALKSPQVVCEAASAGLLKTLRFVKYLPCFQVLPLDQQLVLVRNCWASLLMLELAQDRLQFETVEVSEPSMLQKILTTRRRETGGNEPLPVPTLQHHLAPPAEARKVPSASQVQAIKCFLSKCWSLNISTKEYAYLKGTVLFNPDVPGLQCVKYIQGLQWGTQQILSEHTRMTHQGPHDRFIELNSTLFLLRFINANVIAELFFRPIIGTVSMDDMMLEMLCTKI

Candida albicans [16] = test: resistant Candida growth with fluconazole co-treatment – CaCi-8 strain, Alamar Blue, dry powder, set 2, dose response (AID 488909); assay type: functional, organism-based
Candida albicans [17] = test: fluconazole-resistant Candida strain growth inhibitors – CaCi-8 strain, dry powder, set 4, dose response (AID 488950); assay type: functional, organism-based
Candida albicans [18] = test: C. albicans growth inhibition with fluconazole – CaCi-2 strain, Alamar Blue, dry powder, set 4, dose response (AID 488943); assay type: functional, organism-based
Candida albicans [19] = test: Candida growth reduction in fluconazole presence – CaCi-2 strain, Alamar Blue, dry powder, set 2, antifungal resistance reversal project, dose response (AID 488930); assay type: functional, organism-based
Phospholipase D2 = Phospholipase D2 (Homo sapiens, UniProt O14939); test: cellular phospholipase D2 inhibition IC50 – cell-based, dose response (AID 602147); assay type: functional;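 also: cellular assay in HEK293 cells overexpressing GFP-tagged PLD2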
Phospholipase D1 = biological target: T3, Phospholipase D1 (Homo sapiens, UniProt Q13393); test: cellular phospholipase D1 inhibition IC50 – cell-based, dose response (AID 602151); assay type: functional;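 also: cellular PLD1 assay in Calu-1 cells stimulated with PMA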
T3 sequence (Q13393 whole entry): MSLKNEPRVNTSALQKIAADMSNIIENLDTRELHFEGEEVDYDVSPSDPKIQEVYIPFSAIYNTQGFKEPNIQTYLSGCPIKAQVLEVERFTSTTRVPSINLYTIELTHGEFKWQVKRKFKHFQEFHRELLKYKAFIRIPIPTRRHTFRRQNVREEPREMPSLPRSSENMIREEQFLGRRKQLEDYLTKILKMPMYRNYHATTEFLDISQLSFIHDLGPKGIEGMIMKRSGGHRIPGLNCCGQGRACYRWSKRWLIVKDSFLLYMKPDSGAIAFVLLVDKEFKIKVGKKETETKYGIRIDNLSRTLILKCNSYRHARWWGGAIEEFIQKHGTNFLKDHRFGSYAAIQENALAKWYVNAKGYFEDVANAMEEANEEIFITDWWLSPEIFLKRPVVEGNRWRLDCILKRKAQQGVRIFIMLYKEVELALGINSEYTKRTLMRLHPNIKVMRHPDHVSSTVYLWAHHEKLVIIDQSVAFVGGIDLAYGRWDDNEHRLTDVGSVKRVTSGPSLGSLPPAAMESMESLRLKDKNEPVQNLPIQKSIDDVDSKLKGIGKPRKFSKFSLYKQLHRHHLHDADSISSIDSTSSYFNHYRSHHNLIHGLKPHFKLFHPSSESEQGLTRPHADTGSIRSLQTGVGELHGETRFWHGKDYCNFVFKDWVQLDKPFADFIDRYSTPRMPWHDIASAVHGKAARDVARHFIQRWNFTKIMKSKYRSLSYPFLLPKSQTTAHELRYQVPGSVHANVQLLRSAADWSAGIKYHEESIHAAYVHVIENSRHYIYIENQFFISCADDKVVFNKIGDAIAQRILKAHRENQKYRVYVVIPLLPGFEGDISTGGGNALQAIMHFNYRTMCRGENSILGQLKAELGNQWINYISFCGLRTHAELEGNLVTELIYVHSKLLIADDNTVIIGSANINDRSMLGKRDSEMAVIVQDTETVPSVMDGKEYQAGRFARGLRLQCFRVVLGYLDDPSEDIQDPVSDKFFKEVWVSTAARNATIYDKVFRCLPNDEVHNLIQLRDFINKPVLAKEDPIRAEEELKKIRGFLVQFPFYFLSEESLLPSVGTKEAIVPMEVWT

[20] = biological target: Voltage-gated inwardly rectifying potassium channel KCNH2 (Homo sapiens, UniProt Q12809); conditions: Potency;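 also: confirmatory quantitative high-throughput screen measuring inhibition of hERG channel activity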
[21] = microbe, parasite or virus in culture; assay type: functional; conditions: Mycobacterium tuberculosis

Sequence of Peroxisome proliferator-activated receptor gamma/Nuclear receptor coactivator 1 (P37231 whole entry): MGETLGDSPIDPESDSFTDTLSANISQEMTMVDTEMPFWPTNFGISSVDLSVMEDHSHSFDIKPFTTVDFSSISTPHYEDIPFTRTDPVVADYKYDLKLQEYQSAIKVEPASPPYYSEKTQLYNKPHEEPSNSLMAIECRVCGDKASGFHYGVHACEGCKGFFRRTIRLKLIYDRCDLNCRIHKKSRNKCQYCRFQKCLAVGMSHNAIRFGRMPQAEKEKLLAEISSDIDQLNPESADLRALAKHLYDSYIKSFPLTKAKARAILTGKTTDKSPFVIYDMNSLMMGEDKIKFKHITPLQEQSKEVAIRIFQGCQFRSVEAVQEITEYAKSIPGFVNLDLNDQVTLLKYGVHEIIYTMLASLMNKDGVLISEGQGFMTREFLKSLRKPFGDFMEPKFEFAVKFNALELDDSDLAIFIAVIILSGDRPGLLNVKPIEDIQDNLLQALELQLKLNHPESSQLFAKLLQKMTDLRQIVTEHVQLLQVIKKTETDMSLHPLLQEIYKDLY
Sequence of Peroxisome proliferator-activated receptor gamma/Nuclear receptor coactivator 1 (Q15788 whole entry, further chain): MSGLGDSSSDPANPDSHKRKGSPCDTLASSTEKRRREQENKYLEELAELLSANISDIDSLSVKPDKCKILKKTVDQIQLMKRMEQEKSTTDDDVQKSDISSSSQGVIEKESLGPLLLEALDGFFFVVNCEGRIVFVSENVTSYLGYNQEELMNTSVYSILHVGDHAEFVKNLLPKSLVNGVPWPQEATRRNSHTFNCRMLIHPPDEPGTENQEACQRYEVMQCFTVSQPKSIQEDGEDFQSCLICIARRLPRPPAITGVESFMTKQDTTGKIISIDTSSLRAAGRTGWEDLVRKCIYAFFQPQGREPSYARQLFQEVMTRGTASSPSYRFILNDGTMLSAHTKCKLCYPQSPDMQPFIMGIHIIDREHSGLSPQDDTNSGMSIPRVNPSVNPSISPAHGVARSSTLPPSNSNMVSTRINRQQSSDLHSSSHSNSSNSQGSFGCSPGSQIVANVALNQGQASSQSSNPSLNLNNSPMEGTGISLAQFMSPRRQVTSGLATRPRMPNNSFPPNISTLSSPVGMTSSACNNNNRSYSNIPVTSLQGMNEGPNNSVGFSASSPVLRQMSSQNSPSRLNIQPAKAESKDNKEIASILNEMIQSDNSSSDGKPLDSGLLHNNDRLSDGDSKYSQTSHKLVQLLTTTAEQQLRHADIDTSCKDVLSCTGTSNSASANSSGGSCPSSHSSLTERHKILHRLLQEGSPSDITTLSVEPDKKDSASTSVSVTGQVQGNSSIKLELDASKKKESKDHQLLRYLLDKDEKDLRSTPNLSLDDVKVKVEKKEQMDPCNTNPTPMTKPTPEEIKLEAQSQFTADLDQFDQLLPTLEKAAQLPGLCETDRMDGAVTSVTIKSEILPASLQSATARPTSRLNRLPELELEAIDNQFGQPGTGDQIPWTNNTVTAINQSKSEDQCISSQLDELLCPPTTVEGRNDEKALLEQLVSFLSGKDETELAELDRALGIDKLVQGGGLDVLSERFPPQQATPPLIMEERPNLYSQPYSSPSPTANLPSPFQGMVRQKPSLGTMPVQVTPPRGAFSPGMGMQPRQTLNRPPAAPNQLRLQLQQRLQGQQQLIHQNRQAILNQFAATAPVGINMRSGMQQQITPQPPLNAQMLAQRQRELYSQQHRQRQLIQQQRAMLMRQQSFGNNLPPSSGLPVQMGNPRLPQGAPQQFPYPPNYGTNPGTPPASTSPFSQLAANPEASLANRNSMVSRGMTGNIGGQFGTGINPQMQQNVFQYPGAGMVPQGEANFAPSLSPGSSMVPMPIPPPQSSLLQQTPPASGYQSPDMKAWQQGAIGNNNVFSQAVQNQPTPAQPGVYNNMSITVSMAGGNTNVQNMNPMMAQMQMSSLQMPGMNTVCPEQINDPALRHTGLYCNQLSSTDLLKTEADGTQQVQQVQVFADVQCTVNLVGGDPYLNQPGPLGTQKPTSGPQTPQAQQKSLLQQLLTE
Sequence of Peroxisome proliferator-activated receptor gamma/Nuclear receptor corepressor 2 (P37231 whole entry): as the sequence (P37231 whole entry) above
Sequence of Peroxisome proliferator-activated receptor gamma/Nuclear receptor corepressor 2 (Q9Y618 whole entry): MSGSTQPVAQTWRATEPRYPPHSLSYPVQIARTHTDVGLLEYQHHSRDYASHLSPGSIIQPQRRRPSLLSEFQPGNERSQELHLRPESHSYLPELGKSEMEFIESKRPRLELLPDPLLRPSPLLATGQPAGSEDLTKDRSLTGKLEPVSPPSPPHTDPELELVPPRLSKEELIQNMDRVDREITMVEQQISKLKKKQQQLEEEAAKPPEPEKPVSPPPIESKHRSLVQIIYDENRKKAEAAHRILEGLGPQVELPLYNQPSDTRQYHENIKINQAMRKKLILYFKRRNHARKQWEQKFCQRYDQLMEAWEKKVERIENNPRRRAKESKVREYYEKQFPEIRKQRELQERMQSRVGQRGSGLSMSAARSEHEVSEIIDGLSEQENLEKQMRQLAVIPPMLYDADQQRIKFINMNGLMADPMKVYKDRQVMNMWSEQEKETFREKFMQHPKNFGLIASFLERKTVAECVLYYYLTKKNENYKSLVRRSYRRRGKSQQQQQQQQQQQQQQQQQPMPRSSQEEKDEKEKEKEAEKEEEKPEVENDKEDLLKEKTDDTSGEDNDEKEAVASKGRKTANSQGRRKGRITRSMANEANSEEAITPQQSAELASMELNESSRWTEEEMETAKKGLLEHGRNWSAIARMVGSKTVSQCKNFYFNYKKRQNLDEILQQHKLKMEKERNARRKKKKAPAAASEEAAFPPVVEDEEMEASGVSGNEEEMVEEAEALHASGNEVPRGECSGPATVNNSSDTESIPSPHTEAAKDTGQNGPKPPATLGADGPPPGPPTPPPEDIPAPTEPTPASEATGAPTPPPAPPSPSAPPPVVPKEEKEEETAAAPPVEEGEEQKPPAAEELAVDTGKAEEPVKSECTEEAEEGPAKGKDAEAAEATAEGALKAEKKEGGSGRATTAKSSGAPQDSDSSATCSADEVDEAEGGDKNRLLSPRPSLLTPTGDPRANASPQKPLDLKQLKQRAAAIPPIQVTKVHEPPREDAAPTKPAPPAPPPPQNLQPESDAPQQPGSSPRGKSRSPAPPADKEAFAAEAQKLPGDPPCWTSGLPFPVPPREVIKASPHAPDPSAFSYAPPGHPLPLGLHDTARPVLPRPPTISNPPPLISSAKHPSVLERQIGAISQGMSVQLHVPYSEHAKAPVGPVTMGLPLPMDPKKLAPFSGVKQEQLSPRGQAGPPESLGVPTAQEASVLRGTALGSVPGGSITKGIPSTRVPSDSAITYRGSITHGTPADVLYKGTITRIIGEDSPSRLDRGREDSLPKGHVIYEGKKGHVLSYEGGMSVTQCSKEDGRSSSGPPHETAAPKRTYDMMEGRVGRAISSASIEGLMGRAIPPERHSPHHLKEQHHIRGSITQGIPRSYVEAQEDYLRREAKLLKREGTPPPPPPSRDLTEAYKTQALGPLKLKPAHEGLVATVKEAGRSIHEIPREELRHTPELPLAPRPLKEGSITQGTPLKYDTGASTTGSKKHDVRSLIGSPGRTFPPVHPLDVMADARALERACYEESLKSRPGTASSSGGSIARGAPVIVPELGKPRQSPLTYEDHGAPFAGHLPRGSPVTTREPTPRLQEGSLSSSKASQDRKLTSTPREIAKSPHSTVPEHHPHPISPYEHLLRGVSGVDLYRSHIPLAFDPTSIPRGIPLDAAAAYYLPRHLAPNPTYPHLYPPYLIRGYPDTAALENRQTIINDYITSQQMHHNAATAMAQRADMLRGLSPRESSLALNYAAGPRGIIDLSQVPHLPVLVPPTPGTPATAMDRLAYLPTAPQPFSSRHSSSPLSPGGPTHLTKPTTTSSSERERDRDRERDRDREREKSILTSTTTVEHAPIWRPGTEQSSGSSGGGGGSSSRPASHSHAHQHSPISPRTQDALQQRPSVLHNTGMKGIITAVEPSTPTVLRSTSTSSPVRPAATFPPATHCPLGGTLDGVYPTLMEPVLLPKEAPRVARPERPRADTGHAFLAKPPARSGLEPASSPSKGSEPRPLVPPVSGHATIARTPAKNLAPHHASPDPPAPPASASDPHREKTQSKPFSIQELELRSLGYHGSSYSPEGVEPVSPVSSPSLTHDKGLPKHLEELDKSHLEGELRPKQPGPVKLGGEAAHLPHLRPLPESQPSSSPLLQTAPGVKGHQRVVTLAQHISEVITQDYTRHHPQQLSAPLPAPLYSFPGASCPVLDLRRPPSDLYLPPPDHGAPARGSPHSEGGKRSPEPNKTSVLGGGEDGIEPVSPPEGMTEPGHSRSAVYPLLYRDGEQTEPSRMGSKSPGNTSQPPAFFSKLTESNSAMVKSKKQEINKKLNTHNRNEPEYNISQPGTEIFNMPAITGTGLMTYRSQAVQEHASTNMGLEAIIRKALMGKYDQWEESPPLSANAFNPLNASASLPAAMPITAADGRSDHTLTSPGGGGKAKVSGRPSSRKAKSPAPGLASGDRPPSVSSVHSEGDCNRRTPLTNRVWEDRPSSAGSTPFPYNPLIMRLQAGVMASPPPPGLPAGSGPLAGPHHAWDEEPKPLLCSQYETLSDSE

Question: Which results are given for `COc1cccc(C2C(C(=O)c3cc4ccccc4o3)=C(O)C(=O)N2c2cc(C)on2)c1OC` (configuration not stated)?
Answer: EC50 [1]: 17.2 µM (active); EC50 [2]: 9.84 µM (active); IC50 [3]: 4.97 µM (active); EC50 [4]: 610 nM (active); EC50 [5]: 35.9 µM (inactive); AC50 (Cytochrome P450 3A4): 28.2 µM (inconclusive); AC50 (Cytochrome P450 2C19): 15.8 µM (inconclusive); EC50 [6]: > 180 µM (inactive); IC50 [7]: > 39.8 µM (not active); Ki (fMet-Leu-Phe receptor): > 66.7 µM (inactive); EC50 [8]: > 79.4 µM (not active); EC50 [9]: > 150 µM (inactive)

Question: With `C=CC(=O)OCCOCCOCCOCCOC(=O)C=C` as the compound, how does the AC50 [10] read?
Answer: Its AC50 is 19.2 µM (active).

Question: And the EC50 [11]?
Answer: Its EC50 is > 91.2 µM (inactive).

Question: And the EC50 [12]?
Answer: Its EC50 is > 91.2 µM (inactive).

Question: And the AC50 [13]?
Answer: Its AC50 is 25 µM (active).

Question: What about the AC50 [14] of the same compound?
Answer: Its AC50 is 92 µM (active).

Question: For `Cc1ccccc1NC(=O)Nc1nc2ccc(S(C)(=O)=O)cc2s1`, which IC50 (HEK293) is on record?
Answer: Its IC50 is > 67.5 µM (inactive).

Question: And the IC50 [15]?
Answer: Its IC50 is > 67.5 µM (inactive).

Question: With `O=C(c1ccc(Cl)cn1)N1CCN(c2ccnc3cc(Cl)ccc23)CC1` as the compound, how does the AC50 (Candida albicans [16]) read?
Answer: The AC50 was < 195 nM (active).

Question: What about the AC50 (Candida albicans [17]) of the same compound?
Answer: The AC50 was 3.17 µM (active).

Question: And the AC50 (Candida albicans [18])?
Answer: The AC50 was 2.47 µM (active).

Question: And the AC50 (Candida albicans [19])?
Answer: Its AC50 is 316 nM (active).

Question: Which results are given for `C[C@@H](CN1CCC(n2c(=O)[nH]c3ccc(F)cc32)CC1)NC(=O)c1ccc(Cl)cc1`?
Answer: IC50 (Phospholipase D2): 434 nM (active); IC50 (Phospholipase D1): 4 nM (active)

Question: Which results are given for `CN1CCN2c3ccccc3Cc3ccccc3C2C1` (configuration not stated) [MIANSERIN HYDROCHLORIDE]?
Answer: AC50 [20]: 35.5 µM (inconclusive); CC50 [21]: > 40 µM (active)
